Experimental findings from patent US20070254931A1, “Thiazole Derivatives Having Vap-1 Inhibitory Activity” (Astellas Pharma Inc., priority 2004, published 2007) are described below.

Structures can show the parent of a compound that is named as a salt.

The term IC50 denotes the concentration at which inhibition is half-maximal. For orientation: melting point means the temperature of the solid-liquid transition.

In the first series the target is T1, Human plasma SSAO (Homo sapiens, UniProt Q16853).
T1 construct: The enzyme suspension prepared from blood plasma was pre-incubated with a control compound; from tissue; host or cells: human blood plasma
T1 sequence (Q16853 27-763 limits assumed): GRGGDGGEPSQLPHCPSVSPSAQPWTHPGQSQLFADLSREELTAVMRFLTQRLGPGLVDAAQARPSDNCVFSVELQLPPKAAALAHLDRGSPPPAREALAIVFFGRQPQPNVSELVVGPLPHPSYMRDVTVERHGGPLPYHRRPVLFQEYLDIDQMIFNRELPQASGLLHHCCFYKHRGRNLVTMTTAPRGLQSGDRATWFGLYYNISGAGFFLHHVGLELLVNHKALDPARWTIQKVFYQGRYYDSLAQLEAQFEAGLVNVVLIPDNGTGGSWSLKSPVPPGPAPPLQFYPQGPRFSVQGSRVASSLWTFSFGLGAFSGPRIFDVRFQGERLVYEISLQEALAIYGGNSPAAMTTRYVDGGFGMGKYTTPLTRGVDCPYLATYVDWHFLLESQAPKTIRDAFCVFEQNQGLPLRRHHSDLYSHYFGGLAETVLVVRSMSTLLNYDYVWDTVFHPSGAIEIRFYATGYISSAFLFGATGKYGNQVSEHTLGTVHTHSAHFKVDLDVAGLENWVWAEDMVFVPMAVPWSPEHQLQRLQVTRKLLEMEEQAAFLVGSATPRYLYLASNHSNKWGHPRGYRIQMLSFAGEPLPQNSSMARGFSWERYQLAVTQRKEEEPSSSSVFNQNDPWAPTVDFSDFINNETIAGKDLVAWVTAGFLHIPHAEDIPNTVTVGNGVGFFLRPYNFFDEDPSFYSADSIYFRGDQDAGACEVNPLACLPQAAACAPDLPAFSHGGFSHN
In words: VAP-1 enzyme (SSAO) activity in human plasma, radiochemical-enzyme assay with 14C-benzylamine. The following applies: human plasma enzyme suspension; pre-incubation 30 min at room temperature; 14C-benzylamine 2×10^−5 mol/l, 37° C., 1 hour; read-out: Inhibitory effect (IC50 values, μM) Human plasma SSAO. The series is classed as biochemical. Here is the method: VAP-1 enzyme (SSAO) activity in human plasma was determined by a radiochemical-enzyme assay using ^14C-benzylamine as an artificial substrate. The enzyme suspension prepared from blood plasma was pre-incubated with a control compound (Reference Example 1) in 96-well microplate at room temperature for 30 min. The enzyme suspension was then incubated with ^14C-benzylamine (2×10^−5 mol/l final concentration) in a final volume of 50 μl at 37° C. for 1 hour. The enzyme reaction was terminated by adding 2 mol/l (50 μl) citric acid. The oxidized products were directly extracted into a 200 μl toluene scintillator, and its radioactivity was measured by a scintillation spectrometer. Inhibition activity was expressed as IC50 (μmol/l) value.
Test compounds (i.e., the present compounds) inhibited the enzyme activity of human plasma SSAO in comparison with the control compound as shown in Table 1.
`CC(=O)Nc1nc(CCc2ccc(NC(=N)N)cc2)c(Cc2cccc(S(C)(=O)=O)c2)s1` [Production Example 1, N-{4-[2-(4-{[amino(imino)methyl]amino}phenyl)ethyl]-5-[3-(methylsulfonyl)benzyl]-1,3-thiazol-2-yl}acetamide]: the IC50 turned out to be 0.016 µM.

In the case of `CC(=O)Nc1nc(CCc2ccc(NC(=N)N)cc2)c(Cc2ccc(S(N)(=O)=O)cc2)s1` [Production Example 3, N-{4-[2-(4-{[amino(imino)methyl]amino}phenyl)ethyl]-5-[4-(aminosulfonyl)benzyl]-1,3-thiazol-2-yl}acetamide hydrochloride], the IC50 was determined as 0.0045 µM.

Regarding `CC(=O)Nc1nc(-c2ccc(CCCCNC(=N)N)cc2)cs1` [Production Example 7, N-{4-[4-(4-{[amino(imino)methyl]amino}butyl)phenyl]-1,3-thiazol-2-yl}acetamide hydrochloride], the IC50 was 0.015 µM.

Take `CC(=O)Nc1nc(CCc2ccc(CC(=O)NC(=N)N)cc2)cs1` [Production Example 9, 2-(4-{2-[2-(acetylamino)-1,3-thiazol-4-yl]ethyl}phenyl)-N-[amino(imino)methyl]acetamide]: the IC50 came to 0.0026 µM.

As for `CC(=O)Nc1nc(CCc2ccc(NC(=N)N)cc2)c(CN2CC[C@@H](C(=O)N(C)C)C2)s1` [Production Example 12, (3R)-1-({2-(acetylamino)-4-[2-(4-{[amino(imino)methyl]amino}phenyl)ethyl]-1,3-thiazol-5-yl}methyl)-N,N-dimethyl-3-pyrrolidinecarboxamide dihydrochloride], the IC50 came out at 0.019 µM.

For `CC(=O)Nc1nc(CCc2ccc(NC(=N)N)cc2)c(CN2CC[C@H](C(=O)N(C)C)C2)s1` [Production Example 14, (3S)-1-({2-(acetylamino)-4-[2-(4-{[amino(imino)methyl]amino}phenyl)ethyl]-1,3-thiazol-5-yl}methyl)-N,N-dimethyl-3-pyrrolidinecarboxamide dihydrochloride], the IC50 was determined as 0.014 µM.

On to `CC(=O)Nc1nc(CCc2ccc(NC(=N)N)cc2)c(CN(C)C(=O)c2ccc(S(C)(=O)=O)cc2)s1` [Production Example 16, N-({2-(acetylamino)-4-[2-(4-{[amino(imino)methyl]amino}phenyl)ethyl]-1,3-thiazol-5-yl}methyl)-N-methyl-4-(methylsulfonyl)benzamide hydrochloride], for which the IC50 was 0.012 µM.

On to `CC(=O)Nc1nc(CCc2ccc(NC(=N)N)cc2)c(CN(C)C(=O)c2ccc([N+](=O)[O-])cc2)s1` [Production Example 19, N-({2-(acetylamino)-4-[2-(4-{[amino(imino)methyl]amino}phenyl)ethyl]-1,3-thiazol-5-yl}methyl)-N-methyl-4-nitrobenzamide hydrochloride], for which the IC50 was found to be 0.032 µM.

`CC(=O)Nc1nc(CCc2ccc(CCNC(=N)N)cc2)cs1` [Production Example 25, N-(4-{2-[4-(2-{[amino(imino)methyl]amino}ethyl)phenyl]ethyl}-1,3-thiazol-2-yl)acetamide]: the IC50 is 0.0057 µM.

As for `CC(=O)Nc1nc(CCc2ccc(NC(=N)N)cc2)cs1` [Reference Example 1, N-{4-[2-(4-{[amino(imino)methyl]amino}phenyl)ethyl]-1,3-thiazol-2-yl}acetamide, reference compound], the IC50 amounted to 0.033 µM.

System in another series: not given
Test: not given
Settings: not given
Consider `CC(=O)Nc1nc(-c2ccc(CCNC(=N)N)cc2)c(Cc2ccc(S(C)(=O)=O)cc2)s1.Cl`, for which the melting point is 217 to 218.5 °C.

`CC(=O)Nc1nc(CCc2ccc(NC(=N)N)cc2)c(Cc2cccc(S(C)(=O)=O)c2)s1` [Production Example 1, N-{4-[2-(4-{[amino(imino)methyl]amino}phenyl)ethyl]-5-[3-(methylsulfonyl)benzyl]-1,3-thiazol-2-yl}acetamide] displayed a melting point of 212 to 213.5 °C.
